According to patent EP0044212B1, “Herbicidal o-alkylsulfonyloxy- and o-alkylsulfonylamino-benzenesulfonamides” (E.I. DU PONT DE NEMOURS AND COMPANY, priority 1980, dated 1982):

Tests used:
[1] = test system: Cocklebur; assay: Test F over-the-top soil/foliage treatment; type: in vivo, Xanthium pensylvanicum; conditions: soil/foliage spray, ~14 days
Experimental: (§1) The test chemicals, dissolved in a non-phytotoxic solvent, were applied in an overall spray to the foliage and surrounding […] of selected plant species. […] Approximately fourteen days after treatment, all species were visually compared to untreated controls and rated for response to treatment.
(§2) All plant species were seeded in Woodstown sandy loam soil and grown in a greenhouse. The following species were grown in soil contained in plastic pots (25 cm diameter by 13 cm deep): soybeans, cotton, alfalfa, corn, rice, wheet, sorghum, velvetleaf (Abutilon theophrasti), sesbania (Sesbania exaltata), Cassia (Cassia tora), morningglory (Ipomoea hederacea), jimsonweed (Datura stramonium), cocklebur (Xanthium pensylvanicum), crabgrass (Digitaria spp.), nutsedge (Cyperus rotundus), barnyardgrass (Echinochloa crusgalli), giant foxtail (Setaria faberii) and wild oats (Avena fatua). The following species were grown in soil in a paper cup (12 cm diameter by 13 cm deep): sunflower, sugarbeets, and mustard. All plants were sprayed approximately 14 days after planting.

[2] = test system: Rice; assay: Test E application to paddy water after transplanting of rice; type: in vivo
Description: (§3) Test samples were formulated and applied directly to the paddy water three days after transplanting of rice. The test was maintained in a greenhouse, and plant response ratings were taken at the stated intervals after application.

[3] = test system: Velvetleaf; assay: Test B pre-emergence on Fallsington silt loam; type: in vivo, Abutilon theophrasti; conditions: 28 days
Description: (§4) Two plastic bulb pans were filled with fertilized and limed Fallsington silt loam soil. One pan was planted with corn, sorghum, Kentucky bluegrass and several grassy weeds. The other pan was planted with cotton, soybeans, purple nutsedge (Cyperus rotundus), and several broadleaf weeds. The following grassy and broadleaf weeds were planted: crabgrass (Digitaria sanguinalis), barnyardgrass (Echinochloa crusgalli), wild oats (Avena fatua), johnsongrass (Sorghum halepense), dallisgrass (Paspalum dilatatum), giant foxtail (Setaria faberii), cheatgrass (Bromus secalinus), mustard (Brassica arvensis), cocklebur (Xanthium pensylvanicum), pigweed (Amaranthus retroflexus), morningglory (Ipomoea hederacea), cassia (Cassia tora), teaweed (Sida spinosa), velvetleaf (Abutilon theophrasti), and jimsonweed (Datura stramonium). A 12.5 cm diameter plastic pot was also filed with prepared soil and planted with rice and wheat. Another 12.5 cm pot was planted with sugarbeets. The above four containers were treated pre- emergence with several test compounds within the scope of the invention.
(§5) Twenty-eight days after treatment, the plants were evaluated and visually rated for response to the chemical treatments utilizing the rating system described previously for Test A. The data are summarized in Table B.

[4] = test system: Cotton; assay: Test F over-the-top soil/foliage treatment; type: in vivo; conditions: soil/foliage spray, ~14 days
Summary of the method: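 Plants were raised in Woodstown sandy loam in the greenhouse and sprayed about 14 days after planting with test chemicals dissolved in a non-phytotoxic solvent, applied over foliage and surrounding soil. Response was rated visually against untreated controls roughly fourteen days after treatment.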

[5] = test system: Water Chestnut; assay: Test E application to paddy water after transplanting of rice; type: in vivo, Eleocharis spp.
Description: as §3

[6] = test system: Nutsedge; assay: Test F over-the-top soil/foliage treatment; type: in vivo, Cyperus rotundus; set-up: scale not given here; conditions: soil/foliage spray, ~14 days
Experimental: as §1, §2

[7] = test system: Mustard; assay: Test B pre-emergence on Fallsington silt loam; type: in vivo, Brassica arvensis; conditions: 28 days
Description: as §4, §5

[8] = test system: Barnyardgrass; assay: Test E application to paddy water after transplanting of rice; type: in vivo, Echinochloa spp.
Description: as §3

[9] = test system: Sugarbeets; assay: Test B pre-emergence on Fallsington silt loam; type: in vivo; set-up: scale not given here; conditions: 28 days
Summary of the method: (§6)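 Visual ratings of plant response, taken twenty-eight days after application, are reported. Compounds were applied to the soil surface before emergence of weeds sown in fertilized and limed Fallsington silt loam.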

[10] = test system: Wheat; assay: Test B pre-emergence on Fallsington silt loam; type: in vivo; set-up: scale not given here; conditions: 28 days
Summary of the method: as §6

[11] = test system: Crabgrass; assay: Test F over-the-top soil/foliage treatment; type: in vivo, Digitaria spp.; set-up: scale not given here; conditions: soil/foliage spray, ~14 days
Experimental: as §1, §2

[12] = test system: Teaweed; assay: Test B pre-emergence on Fallsington silt loam; type: in vivo, Sida spinosa; conditions: 28 days
Description: as §4, §5

[13] = test system: Jimsonweed; assay: Test B pre-emergence on Fallsington silt loam; type: in vivo, Datura stramonium; conditions: 28 days
Description: as §4, §5

[14] = test system: Kochia; assay: Test D pre-/post-emergence weed control in cereals; type: in vivo, Kochia scoparia; conditions: 20 days
Description: (§7) Two ten-inch in diameter plastic pans lined with polyethylene liners were filled with prepared Fallsington slit loam soil. One pan was planted with seeds of wheat (Triticum aestivum), barley (Hordeum vulgarel, wild oats (Avena fatua), downy brome (Bromus tectorum), cheatgrass (Bromus secalinus), blackgrass (Alopecurus myosuroides), annual bluegrass (Poa annual, green foxtail (Setaria viridis), quack grass (Agropyron repens), Italian ryegrass (Lolium multiflorum) and ripgut brome (Bromus rigidus). The other pan was planted with seeds of Russian thistle (Salsola kali), tansy mustard (Descuraina pinnata), smartweed (Polygonum pensylvanicum), tumble mustard (Sisymbrium altissium) kochia (Kochia scoparia), shepherd's purse (Capsella bursa-pastoris), Matricaria inodora, black nightshade (Solanum nigrum), yellow rocket (Barbarea vulgaris), wild mustard (Brassica kaber) and wild buckwheat (Polygonum convolvulus). The above two pans were treated pre-emergence. At the same time two pans in which the above plant species were growing were treated post-emergence. Plant height at the time of treatment ranged from 1-15 cm depending on plant species.
(§8) The compounds applied were diluted with a non-phytotoxic solvent and sprayed over-the-top of the pans. An untreated control and a solvent alone control were included for comparison. All treatments were maintained in the greenhouse for 20 days at which time the treatments were compared to the controls and the effects visually rated. The recorded data, presented in Table D, indicate that certain compounds from within the scope of the invention have utility for pre- and/or post-emergence weed control in cereal crops such as wheat and barley.

[15] = test system: Green Foxtail; assay: Test D pre-/post-emergence weed control in cereals; type: in vivo, Setaria viridis; conditions: 20 days
Description: as §7, §8

[16] = test system: Downy Brome; assay: Test D pre-/post-emergence weed control in cereals; type: in vivo, Bromus tectorum; conditions: 20 days
Description: as §7, §8

[17] = test system: Wheat; assay: Test D pre-/post-emergence weed control in cereals; type: in vivo, Triticum aestivum; conditions: 20 days
Description: as §7, §8

[18] = test system: Wild Buckwheat; assay: Test D pre-/post-emergence weed control in cereals; type: in vivo, Polygonum convolvulus; conditions: Pre-Emergence; 0.015 kg/ha; 20 days
Description: as §7, with “Plant height at the time of treatment ranged from 1-15 cm depending on plant species.” left out
The compounds applied were diluted with a non-phytotoxic solvent and sprayed over-the-top of the pans. […] The recorded data, presented in Table D, indicate that certain compounds from within the scope of the invention have utility for pre- and/or post-emergence weed control in cereal crops such as wheat and barley.

[19] = test system: Ripgut Brome; assay: Test D pre-/post-emergence weed control in cereals; type: in vivo, Bromus rigidus; conditions: 20 days
Description: as §7, §8

COc1cc(OC)nc(NC(=O)NS(=O)(=O)c2ccccc2OS(C)(=O)=O)n1 [Compound 1, N-[(4,6-Dimethoxypyrimidin-2-yl)aminocarbonyl]-2-hydroxybenzenesulfonamide, methanesulfonate]
8G: Water Chestnut** 4 Weeks ([5]; 4 g/ha in paddy water)
7G: Cocklebur response rating ([1]; 0.007 kg/ha) | Water Chestnut** 4 Weeks ([5]; 1 g/ha in paddy water)
9G: Water Chestnut** 4 Weeks ([5]; 8 g/ha in paddy water)
5G: Cocklebur response rating ([1]; 0.003 kg/ha) | Nutsedge response rating ([6]; 0.007 kg/ha) | Crabgrass response rating ([11]; 0.007 kg/ha)
2C: Crabgrass response rating ([11]; 0.015 kg/ha)
10C: Velvetleaf response rating ([3]; 0.12 kg/ha) | Cotton response rating ([4]; 0.003 kg/ha) | Nutsedge response rating ([6]; 0.015 kg/ha) | Nutsedge response rating ([6]; 0.06 kg/ha) | Mustard response rating ([7]; 0.03 kg/ha) | Mustard response rating ([7]; 0.12 kg/ha) | Sugarbeets response rating ([9]; 0.03 kg/ha) | Sugarbeets response rating ([9]; 0.12 kg/ha)
0: Rice 4 Days ([2]; 1 g/ha in paddy water) | Rice 4 Weeks ([2]; 1 g/ha in paddy water) | Rice 4 Days ([2]; 4 g/ha in paddy water) | Rice 4 Weeks ([2]; 4 g/ha in paddy water) | Rice 4 Days ([2]; 8 g/ha in paddy water) | Rice 4 Weeks ([2]; 8 g/ha in paddy water) | Barnyardgrass* 4 Weeks ([8]; 1 g/ha in paddy water) | Barnyardgrass* 4 Weeks ([8]; 4 g/ha in paddy water) | Barnyardgrass* 4 Weeks ([8]; 8 g/ha in paddy water) | Wheat response rating ([10]; 0.03 kg/ha) | Crabgrass response rating ([11]; 0.003 kg/ha)
6G: Teaweed response rating ([12]; 0.03 kg/ha)
3G: Nutsedge response rating ([6]; 0.003 kg/ha) | Wheat response rating ([10]; 0.12 kg/ha)

Cc1cc(C)nc(NC(=O)NS(=O)(=O)c2ccccc2OS(C)(=O)=O)n1 [Compound 3, N-[(4,6-dimethylpyrimidin-2-yl)aminocarbonyl]-2-hydroxybenzenesulfonamide, methanesulfonate]
5G: Nutsedge response rating ([6]; 0.003 kg/ha) | Mustard response rating ([7]; 0.007 kg/ha) | Wheat response rating ([10]; 0.03 kg/ha)
10C: Cotton response rating ([4]; 0.007 kg/ha) | Mustard response rating ([7]; 0.03 kg/ha) | Mustard response rating ([7]; 0.12 kg/ha) | Sugarbeets response rating ([9]; 0.03 kg/ha) | Sugarbeets response rating ([9]; 0.12 kg/ha) | Teaweed response rating ([12]; 0.12 kg/ha)
0: Velvetleaf response rating ([3]; 0.007 kg/ha) | Velvetleaf response rating ([3]; 0.015 kg/ha) | Jimsonweed response rating ([13]; 0.007 kg/ha) | Jimsonweed response rating ([13]; 0.015 kg/ha) | Wheat response rating ([10]; 0.007 kg/ha) | Wheat response rating ([10]; 0.015 kg/ha) | Crabgrass response rating ([11]; 0.003 kg/ha) | Crabgrass response rating ([11]; 0.015 kg/ha) | Teaweed response rating ([12]; 0.015 kg/ha)
7G: Nutsedge response rating ([6]; 0.007 kg/ha)
4G: Sugarbeets response rating ([9]; 0.015 kg/ha) | Teaweed response rating ([12]; 0.03 kg/ha)
3G: Cocklebur response rating ([1]; 0.003 kg/ha)

CCCS(=O)(=O)Oc1ccccc1S(=O)(=O)NC(=O)Nc1nc(C)nc(OC)n1 [Compound 39, 2-hydroxy-N-[(4-methoxy-6-methyl-1,3,5-triazin-2-yl)aminocarbonyl]benzenesulfonamide, 1-propanesulfonate]
3G: Nutsedge response rating ([6]; 0.03 kg/ha)
5G: Nutsedge response rating ([6]; 0.007 kg/ha)
10C: Sugarbeets response rating ([9]; 0.25 kg/ha)
0: Nutsedge response rating ([6]; 0.015 kg/ha) | Nutsedge response rating ([6]; 0.06 kg/ha) | Wheat response rating ([10]; 0.06 kg/ha) | Wheat response rating ([10]; 0.25 kg/ha) | Crabgrass response rating ([11]; 0.007 kg/ha) | Crabgrass response rating ([11]; 0.015 kg/ha) | Crabgrass response rating ([11]; 0.03 kg/ha) | Crabgrass response rating ([11]; 0.06 kg/ha) | Crabgrass response rating ([11]; 0.12 kg/ha)
1G: Nutsedge response rating ([6]; 0.12 kg/ha)

CCCS(=O)(=O)Oc1ccccc1S(=O)(=O)NC(=O)Nc1nc(OC)cc(OC)n1 [Compound 36, N-[(4,6-dimethoxypropimidin-2-yl)aminocarbonyl]-2-hydroxybenzenesulfonamide, 1-propanesulfonate]
3G: Jimsonweed response rating ([13]; 0.06 kg/ha) | Downy Brome response rating ([16]; Post-Emergence, 0.06 kg/ha) | Downy Brome response rating ([16]; Pre-Emergence, 0.015 kg/ha) | Wild Buckwheat response rating [18]
10C: Water Chestnut** 8 Weeks ([5]; 25 g/ha in paddy water) | Water Chestnut** 8 Weeks ([5]; 100 g/ha in paddy water)
6G: Downy Brome response rating ([16]; Pre-Emergence, 0.06 kg/ha)
0: Rice 1 Week ([2]; 25 g/ha in paddy water) | Rice 8 Weeks ([2]; 25 g/ha in paddy water) | Rice 1 Week ([2]; 100 g/ha in paddy water) | Rice 8 Weeks ([2]; 100 g/ha in paddy water) | Kochia response rating ([14]; Post-Emergence, 0.015 kg/ha) | Kochia response rating ([14]; Post-Emergence, 0.06 kg/ha) | Kochia response rating ([14]; Pre-Emergence, 0.015 kg/ha) | Downy Brome response rating ([16]; Post-Emergence, 0.015 kg/ha) | Wheat response rating ([17]; Post-Emergence, 0.015 kg/ha) | Wheat response rating ([17]; Post-Emergence, 0.06 kg/ha) | Wheat response rating ([17]; Pre-Emergence, 0.015 kg/ha) | Wheat response rating ([17]; Pre-Emergence, 0.06 kg/ha) | Barnyardgrass* 8 Weeks ([8]; 25 g/ha in paddy water) | Barnyardgrass* 8 Weeks ([8]; 100 g/ha in paddy water) | Wheat response rating ([10]; 0.06 kg/ha) | Wheat response rating ([10]; 0.25 kg/ha) | Ripgut Brome response rating ([19]; Post-Emergence, 0.015 kg/ha)
1G: Green Foxtail response rating ([15]; Post-Emergence, 0.015 kg/ha)
2G: Green Foxtail response rating ([15]; Post-Emergence, 0.06 kg/ha) | Green Foxtail response rating ([15]; Pre-Emergence, 0.015 kg/ha) | Ripgut Brome response rating ([19]; Post-Emergence, 0.06 kg/ha) | Ripgut Brome response rating ([19]; Pre-Emergence, 0.015 kg/ha)
